In brackets after ≈: the same amount, converted by molar mass. Read-outs that look alike come from different tables or passages of the source.
Experiments:
[1] = tested on: cytochrome P450; assay: 7-ethoxycoumarin deethylation activity in silkworm tissue culture (fluorometry); assay type: in vitro ADME, Bombyx mori (silkworm)
Protocol: Figure 2 Tissue specificity of 7-ethoxycoumarin deethylation activity in silkworm. (A) The midgut, fat body, silk gland, and Malpighian tubule were extirpated from silkworms and incubated in medium containing 7-ethoxycoumarin at 30 °C. Medium was collected, extracted by acetone, and evaporated. Samples […] in 50 mM NaOAc buffer (pH 6.0) were treated with beta-glucosidase. The amount of 7-hydroxycomarin, a metabolite, was determined by fluorometry. (B) Inhibition of 7-ethoxycoumarin deethylation by cimetidine in the silkworm midgut. Silkworm midgut was incubated in medium containing 7-ethoxycoumarin and cimetidine at 30 °C. Samples were collected, extracted by acetone, and treated with beta-glucosidase. The amount of 7-hydroxycomarin was determined by fluorometry.
Samples for HPLC were dissolved in 50% methanol.

[2] = in vitro
[3] = tested on: Candida albicans; assay: Antifungal activity (MIC) by micro dilution with or without silkworm hemolymph; assay type: cell-based
Protocol: Antimicrobial and antifungal activities of each compound were measured by a micro dilution method[19],[20]. To measure protein binding to antifungal activity, silkworm hemolymph was collected by cutting the pseudopodium using scissors, and centrifuged at 3000 rpm for 5 min at 4 °C.

[4] = tested on: Candida albicans; assay: Silkworm infection model with Candida albicans (ED50); assay type: in vivo, Bombyx mori (silkworm); conditions: silkworm infection model with Candida albicans
[5] = Protein-binding capacity in silkworm hemolymph (filter unit, HPLC)
[6] = tested on: cytochrome P450; assay: Decay of cytochrome P450 substrates in in vitro culture of the silkworm midgut (HPLC); conditions: for HPLC peak area of substrate, Sample 1 / HPLC peak area of substrate, Sample 2: midgut culture, raw data of Fig. 3
Protocol: Silkworm midgut was incubated in medium with cytochrome P450 substrates at 30 °C. The samples were collected, extracted by acetone, and evaporated. The amounts of substrates were determined by HPLC analysis.
Silkworms (5th instar, 5 days) were dissected in a buffer (10 mM HEPES/NaOH, 0.9% NaCl, pH 7.9), and isolated organs were incubated with 3 mL TC-100 medium containing 10% fetal bovine serum, 50 µg/ml gentamicin, and substrates for the metabolic reaction. Whole samples (medium and organ) were homogenized and extracted by equal volumes of acetone followed by evaporation. Extracted samples were dissolved in 50 mM NaOAc buffer and treated with beta-glucosidase to measure the fluorescence of metabolized 7-ethoxycoumarin[6]. […] Samples for HPLC were dissolved in 50% methanol. HPLC analysis was performed using a PEGASIL ODS SP column (φ4.5 mm × 250 mm) with isocratic elution at a flow rate of 1 ml/min.

[7] = human serum; ref Schafer-Korting et al. 27; cited from earlier work
[8] = tested on: cytochrome P450; assay: Metabolism of luciferin derivatives in cultured silkworm midgut (P450-Glo, luminometer); assay type: in vitro ADME, Bombyx mori (silkworm); conditions: silkworm midgut incubated with luciferin substrate at 30 °C
[9] = tested on: cytochrome P450; assay: Metabolism of luciferin-ME by microsomal fractions from the silkworm midgut; assay type: biochemical, Bombyx mori (silkworm); conditions: Lineweaver-Burk plot
Protocol: Silkworms were immersed in buffer (10 mM HEPES/NaOH, 0.9% NaCl, pH7.9), and organs were isolated and homogenized in a buffer (100 mM sodium phosphate, 1 mM EDTA, 2 mM benzamidine, 10% glycerol) by a glass-Teflon homogenizer. The tissue homogenates were centrifuged at 9000 × g for 10 min at 4 °C. The supernatant was further centrifuged at 49,000 rpm for 30 min at 4 °C. The precipitate was suspended in buffer (100 mM sodium phosphate, 1 mM EDTA, 2 mM benzamidine, 10% glycerol) and frozen at −80 °C after flash-freezing with liquid nitrogen until use.
Microsomes and substrates were suspended in final 0.25 ml buffer comprising 0.1 M sodium phosphate buffer (pH 7.5) and 0.1 mM EDTA, and pre-incubated for 5 min at 30 °C. A cytochrome P450 reaction was initiated by adding a NADPH-generating system containing 3.3 mM glucose-6-phosphate, 1.25 mM NADP, 3.3 mM MgCl2, and 0.25 U glucose-6-phosphate dehydrogenase as a final concentration.
Microsome fractions were prepared from the silkworm midgut, and incubated with luciferin-ME for 5 min at 30°C. The reactions were initiated by the addition of an NADPH-regeneration system. Production of luciferin was determined using a luminometer. (a) Titration of luciferin-ME. (b) Lineweaver Burk plot made from the titration curve.

[10] = parameters: method as in PMID 3210270; conditions: sheep, dose 10 mg/kg; cited from earlier work
[11] = Pharmacokinetics of antibiotics in silkworm hemolymph after injection (HPLC); conditions: for HPLC peak area in hemolymph: raw data of Fig. 1; for Cltot (total body clearance): silkworm, injection into hemolymph, dose per compound 10-50 mg/kg
Protocol: Antibiotics were injected into silkworm hemolymph and hemolymph was collected by cutting the legs at the indicated time.
Antibiotics dissolved in saline were injected into the hemolymph of 5th instar silkworms using a 1-mL syringe attached to a 27 G needle. Hemolymph was harvested from abdominal appendages by cutting them with scissors at the indicated time-points after administration, and mixed with an equal volume of acetone. Samples were centrifuged at 15,000 rpm for 5 min at 4 °C, and the supernatants were evaporated with a centrifuge evaporator[18]. The dried materials were dissolved in 50% methanol and filtrated through a 0.45-µm filter. […] The amount of antibiotics in the sample was quantified from the peak area of the chromatogram.

[12] = rabbit, dose 10 mg/kg; cited from earlier work
[13] = read-out: MIC with 10% hemolymph (B), with 10% silkworm hemolymph
[14] = without silkworm hemolymph, read-out: MIC without hemolymph (A)

With `CCOc1ccc2ccc(=O)oc2c1` [7-ethoxycoumarin] the “Tissue with the highest capacity to metabolize the compound (in words)” value ([1]; midgut, fat body, silk gland, Malpighian tubule in organ culture) was “the midgut, not the fat body, had the highest capacity to metabolize”.

For `Clc1ccccc1C(c1ccccc1)(c1ccccc1)n1ccnc1` [Clotrimazole], the fraction unbound at 10 min, 10 µM [2] was < 0.01, the MIC [3, 13] was 1.3 µg/mL (≈ 3.77 µM) and the MIC [3, 14] was 0.04 µg/mL (≈ 0.116 µM). For the same molecule, the ED50 [4] was > 10 mg/kg.

With `CC(=O)N1CCN(c2ccc(OCC3COC(Cn4ccnc4)(c4ccc(Cl)cc4Cl)O3)cc2)CC1` (stereo not drawn) [Ketoconazole] the fraction unbound at 10 min, 10 µM [5] was < 0.01, the “Protein-binding capacity in silkworm hemolymph (in words)” value ([5]; silkworm hemolymph) was “high protein-binding capacities in silkworm hemolymph” and the MIC [3, 13] was 1.3 µg/mL (≈ 2.45 µM). For the same molecule, the MIC [3, 14] was 0.04 µg/mL (≈ 0.0753 µM), the ED50 [4] was > 10 mg/kg and the “Metabolism in the silkworm midgut (in words)” value ([6]; in vitro organ culture, up to 20 h incubation) was “metabolized in the silkworm midgut”. For the same molecule, the “HPLC peak area of substrate, Sample 1” value ([6]; 0 h) was 250139, the “HPLC peak area of substrate, Sample 2” value ([6]; 0 h) was 234783 and the “HPLC peak area of substrate, Sample 1” value ([6]; 1 h) was 277669. The “HPLC peak area of substrate, Sample 2” value ([6]; 1 h) was 251170, the “HPLC peak area of substrate, Sample 1” value ([6]; 4 h) was 205212 and the “HPLC peak area of substrate, Sample 2” value ([6]; 4 h) was 213216. For the same molecule, the “HPLC peak area of substrate, Sample 1” value ([6]; 20 h) was 217123, the “HPLC peak area of substrate, Sample 2” value ([6]; 20 h) was 164912 and the “Protein binding (%) mammal” value [7] was 99%.

In the case of `COc1ccc2nc(C3=NC(C(=O)O)CS3)sc2c1` (stereo not drawn) [Luciferin-ME], the “Production of luciferin (RFU/organ)” value [8] is reported as 58,500 RFU/organ, the Km [9] is reported as 7.8 µM and the Vmax [9] is reported as 3.0 pmol/min/mg protein.

With `O=C(O)C1CSC(c2nc3ccc(OCc4c(F)c(F)c(F)c(F)c4F)cc3s2)=N1` (stereo not drawn) [Luciferin-PFBE] the “Production of luciferin (RFU/organ)” value [8] was 229,000 RFU/organ.

For `CO[C@H]1/C=C/O[C@@]2(C)Oc3c(C)c(O)c4c(O)c(c(/C=N/N5CCN(C)CC5)c(O)c4c3C2=O)NC(=O)/C(C)=C\C=C\[C@H](C)[C@H](O)[C@@H](C)[C@@H](O)[C@@H](C)[C@H](OC(C)=O)[C@@H]1C` [Rifampicin], the Cltot [10] is given as 0.31 mL/g/h, the Vdss [10] is given as 1.3 mL/g and the “HPLC peak area in hemolymph” value ([11]; 1 min after injection) is given as 1080705. For the same molecule, the “HPLC peak area in hemolymph” value ([11]; 10 min after injection) was 246911, the “HPLC peak area in hemolymph” value ([11]; 30 min after injection) was 125859 and the “HPLC peak area in hemolymph” value ([11]; 45 min after injection) was 103195. For the same molecule, the “HPLC peak area in hemolymph” value ([11]; 75 min after injection) was 64446, the “HPLC peak area in hemolymph” value ([11]; 90 min after injection) was 59307 and the “HPLC peak area in hemolymph” value ([11]; 150 min after injection) was 20209. For the same molecule, the “HPLC peak area in hemolymph” value ([11]; 180 min after injection) was 11026, the “HPLC peak area in hemolymph” value ([11]; 240 min after injection) was 4977 and the “HPLC peak area in hemolymph” value ([11]; 360 min after injection) was 2816. For the same molecule, the “Time-course of the decrease in concentration in hemolymph (in words)” value ([11]; in vivo) was “biphasic”, the “Difference in total clearance between silkworm and mammal” value ([11]; silkworm (Bombyx mori), in vivo) was 10 fold and the “Cltot (total body clearance)” value ([11]; two-compartment model) was 2.11 mL/g/h.

For `CN(C)[C@@H]1C(O)=C(C(N)=O)C(=O)[C@@]2(O)C(O)=C3C(=O)c4c(O)cccc4[C@@](C)(O)[C@H]3C[C@@H]12` [Tetracycline], the “HPLC peak area in hemolymph” value ([11]; 0.1 min after injection) was 10505876, the “HPLC peak area in hemolymph” value ([11]; 1 min after injection) was 8079061 and the “HPLC peak area in hemolymph” value ([11]; 5 min after injection) was 4188656. For the same molecule, the “HPLC peak area in hemolymph” value ([11]; 10 min after injection) was 3076056, the “HPLC peak area in hemolymph” value ([11]; 20 min after injection) was 2727973 and the “HPLC peak area in hemolymph” value ([11]; 30 min after injection) was 1928231. For the same molecule, the “HPLC peak area in hemolymph” value ([11]; 60 min after injection) was 2239912, the “HPLC peak area in hemolymph” value ([11]; 90 min after injection) was 1941121 and the “HPLC peak area in hemolymph” value ([11]; 120 min after injection) was 1803643. For the same molecule, the “HPLC peak area in hemolymph” value ([11]; 180 min after injection) was 1414738, the “HPLC peak area in hemolymph” value ([11]; 240 min after injection) was 1202608 and the “Time-course of the decrease in concentration in hemolymph (in words)” value ([11]; after administration into hemolymph, alpha and beta phase, two-compartment model) was “biphasic”. The “Cltot (total body clearance)” value ([11]; two-compartment model) was 0.07 mL/g/h and the Cltot [12] was 0.35 mL/g/h.

In the case of `CN/C(=N/CCSCc1nc[nH]c1C)NC#N` [cimetidine], the “Inhibition of 7-ethoxycoumarin deethylation in the silkworm midgut (in words)” value ([1]; midgut incubated with 7-ethoxycoumarin and cimetidine at 30 °C) is reported as “inhibited this reaction in the midgut”.
